According to patent US11358972B2, “Pentacyclic heterocycles” (Eisai R&D Management Co., Ltd., priority 2019, dated 2022):

How the values were obtained:
[1] = test system: Rat primary septal neuron culture; experiment: Measurement of acetylcholine (ACh) release in the rat primary septal neuron culture system; assay type: cell-based; details: 24 h, rat primary septal neurons, with NGF, ACh release measured by HPLC one day after compound addition, read-out: Concentration (μM) showing a 20% or more increase from the amount of ACh in the control group
From the text: Measurement of Acetylcholine (ACh) Release in the Rat Primary Septal Neuron Culture System
(1) Rat Primary Septal Neuron Culture
The septal area was isolated from Sprague-Dawley (SD) rats (Charles River Laboratories Japan, Inc.) at a fetal age of 18 days, and cultured. Specifically, fetuses were removed from pregnant rats under isoflurane anesthesia. The brain was extracted from each fetus, and immersed in ice-cooled L-15 medium (11415-064, Thermo Fisher Scientific). The septal area was dissected from the extracted brain under a stereoscopic microscope. The dissected septal area was treated in 0.25% trypsin (15050-065, Thermo Fisher Scientific) and 0.01% DNase (D5025-150KU, Sigma) at 37° C. for 30 minutes, thereby dispersing the cells. In this case, the enzyme reaction was terminated by adding inactivated horse serum (26050-088, Thermo Fisher Scientific). The enzyme-treated solution was centrifuged at 1000 rpm for 3 minutes, and the supernatant was removed. A medium in an amount of 10 mL was added to the obtained cell mass. The medium used was Dulbecco's Modified Eagle's Medium (044-29765, WAKO) supplemented with N2 supplement (17502-048, Thermo Fisher Scientific), 1 mM sodium pyruvate (11360-070, Thermo Fisher Scientific), and Penicillin-Streptomycin (15140-1221, Thermo Fisher Scientific). The cells of the cell mass to which the medium was added were redispersed by gentle pipetting, and then centrifuged again at 1000 rpm for 3 minutes, and the supernatant was removed. The medium in an amount of 10 mL was added to the obtained cell mass, and the cell dispersion was filtered through a 40-μm nylon mesh (Cell Strainer) to remove the cell mass, thereby obtaining a neuronal cell suspension. The neuronal cell suspension was diluted with the medium, and 10% inactivated bovine serum (26140-079, Thermo Fisher Scientific) and 10% inactivated horse serum were added. Thereafter, 100 μL/well of the suspension was seeded in a 96-well plate (354461, CORNING) pre-coated with poly-D-lysine so that the initial culture density was 1.2×10^5 cells/cm^2. After the seeded cells were cultured under 5% CO2-95% air in a 37° C. incubator for 2 days, the entire medium was replaced with 120 μL of fresh medium, and the cells were subsequently cultured for 5 days.
On the 7th day of culture, compounds were added in the following manner. A solution of the test compound in DMSO was diluted with the medium so that the concentration was 10 times higher than the final concentration. Nerve Growth Factor (450-01, PEPRO TECH, INC.) was prepared at […]. These two solutions were added each in an amount of 15 μL/well, and the mixture was mixed well. The final DMSO concentration was 0.1% or less. Moreover, only DMSO and NGF were added to the control group.
(3) ACh Release Measurement
One day after the compound addition, an amount of ACh release was measured by HPLC in the following manner. A warmed buffer was added at 100 μL/well to the well after the medium was eliminated, and the buffer was immediately removed. Thereafter, a buffer to which 10 μm choline, 10 μm physostigmine, and 6 mM KCl were added was added at 120 μL/well. The buffer was prepared by adding 125 mM NaCl, 25 mM 4-(2-hydroxyethyl)-1-piperazineethanesulfonic acid, 1.2 mM KH2PO4, 1.2 mM MgSO4, 2.2 mM CaCl2 (2H2O), and 10 mM glucose to sterilized water, and the final pH of the solution was set to 7.4. After the 96-well plate to which the buffer was added was incubated under 5% CO2-95% air in a 37° C. incubator for 40 minutes, 80 μL of buffer was collected. An internal standard solution IPHC (5×10^−7 M) was added in an amount of 6 μL to the collected buffer, and the buffer was transferred to a tube for HPLC measurement and subjected to HPLC measurement. […]

[2] = test system: Choline Acetyltransferase (ChAT) mRNA; experiment: Measurement of choline acetyltransferase (ChAT) mRNA expression levels in the rat septal area; assay type: in vivo; details: po, SD male rats, medial septum, 24 hours after administration, read-out: Amount (%) increased from the amount of ChAT mRNA expression levels in the vehicle administration group; for change in vivo at 3 mg/kg: 3 mg/kg orally; for change in vivo at 1 mg/kg: 1 mg/kg orally
Procedure: Measurement of Choline Acetyltransferase (ChAT) mRNA Expression Levels in the Rat Septal Area (1) Compound Administration
In this study, Sprague-Dawley male rats (Charles River Laboratories Japan, Inc.) with a body weight of about 250 to 350 g were used. The test compound was dissolved in 0.01 mol/L hydrochloric acid, and orally administered.
At 24 hours after the administration of the compound, the whole brain tissue was collected under pentobarbital anesthesia. The medial septum was isolated from whole brain on ice and frozen with liquid nitrogen, and then stored at −80° C.
(3) Measurement of ChAT mRNA Expression Levels
For RNA purification, RNeasy™ Plus Mini Kit (#74136: QIAGEN) was used in this study. RNA purification was performed by the method described in the kit After RNA purification, the total RNA concentration was measured by using QIAxpert Instrument (QIAGEN). cDNA was synthesized using SuperScript™ VILO™ cDNA Synthesis Kit (#11754: Thermo Fisher Scientific). The synthesis of cDNA was performed by the method described in the kit. The synthesized cDNA was diluted 4 times with RNase free water, and the diluted cDNA solution was used as a sample. Taqman™ Universal PCR Master Mix (#4304437: Thermo Fisher Scientific), Taqman™ Gene Expression Assays, INVENTORIED (#4331182: Thermo Fisher Scientific), RNase free water, and the cDNA solution were mixed in amounts of 10 μL, 1 μL, 4 μL, and 5 μL, respectively, and the resulting mixture was used as a measurement sample solution. Quantitative polymerase chain reaction (qPCR) was conducted using ABI PRISM™ 7900HT (Thermo Fisher Scientific) by a fluorescence probe method. Analysis was performed by SDS 2.4 (Thermo Fisher Scientific). The results were calculated by the percentage of the amount of ChAT mRNA expression levels in the compound administration group increased from the amount of ChAT mRNA expression levels in the vehicle administration group.

| Compound | minimal effective concentration [1] | change in vivo at 3 mg/kg [2] | change in vivo at 1 mg/kg [2] | change in vivo at 10 mg/kg ([2]; 10 mg/kg orally) | change in vivo at 0.3 mg/kg ([2]; 0.3 mg/kg orally) |
| --- | --- | --- | --- | --- | --- |
| CN1Cc2nc3c(oc4ccccc43)c(=O)n2[C@@H]2CN(CCF)C[C@H]2C1=O (relative stereo) [Example 17, (−)-(3a,14a-trans)-2-(2-fluoroethyl)-5-methyl-2,3,3a,5,6,14a-hexahydro-1H-benzofuro[3′,2′:4,5]pyrimido[1,2-a]pyrrolo[3,4-f][1,4]diazepine-4,13-dione] | 0.03 µM | 44.6% |  |  |  |
| CN1CCc2c(sc3nc4n(c(=O)c23)C(C)(C)CC(=O)N2CCCC42)C1 (single isomer, unassigned; (+)) [Example 2, (+)-7,7,12-trimethyl-1,2,3,6,7,10,11,12,13,15b-decahydropyrido[4″,3″:4′,5′]thieno[2′,3′:4,5]pyrimido[1,2-a]pyrrolo[2,1-c][1,4]diazepine-5,9-dione] | 0.03 µM | 53.6% |  |  |  |
| COCCN1CCc2c(sc3nc4n(c(=O)c23)C(C)(C)CC(=O)N2CCCC42)C1 (single isomer, unassigned; (-)) [Example 13, (−)-12-(2-methoxyethyl)-7,7-dimethyl-1,2,3,6,7,10,11,12,13,15b-decahydro-5H,9H-pyrido[4″,3″:4′,5′]thieno[2′3′:4,5]pyrimido[1,2-a]pyrrolo[2,1-c][1,4]diazepine-5,9-dione] | 0.03 µM |  | 59.7% |  |  |
| CN1Cc2nc3c(oc4ccccc43)c(=O)n2[C@@H]2CCC[C@@H]2C1=O [Example 1, (3aS,14aR)-5-methyl-3,3a,5,6-tetrahydro-1H-benzofuro[3′,2′:4,5]pyrimido[1,2-a]cyclopenta[f][1,4]diazepine-4,13(2H,14aH)-dione] | 0.03 µM |  |  | 76% |  |
| CN1Cc2nc3c(oc4cc(F)ccc43)c(=O)n2[C@@H]2CCC[C@@H]2C1=O [Example 3, (3aS,14aR)-10-fluoro-5-methyl-3,3a,5,6-tetrahydro-1H-benzofuro[3′,2′:4,5]pyrimido[1,2-a]cyclopenta[f][1,4]diazepine-4,13(2H,14aH)-dione] | 0.03 µM |  | 53.7% |  |  |
| Cc1cc(C)c2c(n1)oc1c(=O)n3c(nc12)CN(C)C(=O)[C@H]1CCC[C@H]13 [Example 4, (3aS,14aR)-5,8,10-trimethyl-3,3a,5,6-tetrahydro-1H-cyclopenta[f]pyrido[3″,2″:4′,5′]furo[3′,2′:4,5]pyrimido[1,2-a][1,4]diazepine-4,13(2H,14aH)-dione] | 0.1 µM |  | 51.5% |  |  |
| CN1Cc2nc3c(oc4cc(F)ccc43)c(=O)n2[C@@H]2CCC[C@H]2C1=O [Example 5, (3aR,14aR)-10-fluoro-5-methyl-3,3a,5,6-tetrahydro-1H-benzofuro[3′,2′:4,5]pyrimido[1,2-a]cyclopenta[f][1,4]diazepine-4,13(2H,14aH)-dione] | 0.03 µM |  | 54.1% |  |  |
| CN1Cc2nc3c(oc4cc(C(F)(F)F)ccc43)c(=O)n2[C@@H]2CCC[C@H]2C1=O [Example 6] | 0.03 µM |  |  |  | 67.7% |
| CN1Cc2nc3sc4c(c3c(=O)n2[C@@H]2CCC[C@@H]2C1=O)CCN(CC(F)F)C4 [Example 7, (3aS,14aR)-10-(2,2-difluoroethyl)-5-methyl-2,3,3a,5,6,9,10,11,12,14a-decahydro-1H-cyclopenta[f]pyrido[4″,3″:4′,5′]thieno[2′,3′:4,5]pyrimido[1,2-a][1,4]diazepine-4,13-dione] | 0.3 µM | 76.6% |  |  |  |
| COCCN1CCc2c(sc3nc4n(c(=O)c23)[C@@H]2CCC[C@@H]2C(=O)N(C)C4)C1 [Example 8] | 0.03 µM | 71.8% |  |  |  |
| CN1Cc2nc3c(oc4cc(C(F)F)ccc43)c(=O)n2[C@@H]2CCC[C@@H]2C1=O [Example 9] | 0.03 µM | 112% |  |  |  |
